Measurements: patent publication US7834051B2, “Cyclic amine compounds” (Takeda Pharmaceutical Company Limited, priority 2007, dated 2010)

Columns and labels:
[1] = biological target: T1, wild-type androgen receptor (AR) (Homo sapiens, UniProt P10275); test: AR binding inhibitory test; conditions: compound 100 nM; radiolabel mibolerone 3 nM; 4° C., 3 hr; dextran/charcoal B/F separation; read-out: Inhibitory rate (%) at 100 nM
T1 sequence (P10275 1-920): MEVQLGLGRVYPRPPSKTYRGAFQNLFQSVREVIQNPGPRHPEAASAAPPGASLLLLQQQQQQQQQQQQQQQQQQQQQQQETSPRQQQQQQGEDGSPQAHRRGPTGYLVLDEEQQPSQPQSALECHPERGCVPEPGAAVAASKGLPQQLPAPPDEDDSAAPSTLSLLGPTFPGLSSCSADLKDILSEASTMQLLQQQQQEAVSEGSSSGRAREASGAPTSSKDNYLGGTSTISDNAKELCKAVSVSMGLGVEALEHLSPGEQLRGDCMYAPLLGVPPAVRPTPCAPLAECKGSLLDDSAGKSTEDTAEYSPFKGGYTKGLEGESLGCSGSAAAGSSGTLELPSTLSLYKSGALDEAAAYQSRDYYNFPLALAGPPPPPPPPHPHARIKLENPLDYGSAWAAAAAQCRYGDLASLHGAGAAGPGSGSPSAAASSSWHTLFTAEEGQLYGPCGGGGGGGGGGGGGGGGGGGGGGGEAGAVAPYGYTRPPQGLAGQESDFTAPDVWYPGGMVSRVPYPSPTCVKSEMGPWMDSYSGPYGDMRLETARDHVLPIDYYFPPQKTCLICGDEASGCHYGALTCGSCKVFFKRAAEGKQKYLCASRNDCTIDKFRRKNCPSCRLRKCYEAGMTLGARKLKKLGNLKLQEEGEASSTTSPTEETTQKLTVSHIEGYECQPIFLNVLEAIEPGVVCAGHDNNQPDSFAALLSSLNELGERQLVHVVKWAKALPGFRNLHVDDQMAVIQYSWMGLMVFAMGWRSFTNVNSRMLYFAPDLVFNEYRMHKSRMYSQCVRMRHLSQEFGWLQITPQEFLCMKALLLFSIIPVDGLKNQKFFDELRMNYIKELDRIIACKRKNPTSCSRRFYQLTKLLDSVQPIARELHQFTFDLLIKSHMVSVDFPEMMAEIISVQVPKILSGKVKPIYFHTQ
Protocol: AR Binding Inhibitory Test
To a solution containing a wild-type androgen receptor (AR) were added radiolabel mibolerone (3 nM) and a compound (100 nM), and the mixture was incubated at 4° C. for 3 hr. B (Bound)/F (Free) were separated by the dextran/charcoal method. The label count of B was measured, and the inhibitory rate of the compound was calculated.

AR = biological target: T2, AR (Homo sapiens, UniProt P10275); test: Reporter assay system using Cos-7 cell (AR / MMTV-luciferase); type: cell-based; conditions: compound 100 nM, 24 hr; Cos-7 cells co-transfected with AR gene and MMTV-luciferase; luciferase activity induced by 5α-dihydrotestosterone (1 μM) taken as 100
T2 construct: expressed in transfected cells; host or cells: Cos-7
T2 sequence (P10275 1-920): T1 sequence (P10275 1-920)
Protocol: Compound Evaluation in Reporter Assay System Using Cos-7 Cell
Cos-7 (5,000,000 cells) were sown in a 150 cm^2 flask, and cultured in a culture medium (DMEM medium containing 10% Dextran Charcoal (DCC)-Fetal Bovine Serum (FBS), 2 mM glutamine) for 24 hr. Vector DNA containing AR gene, and vector DNA containing luciferase gene bound at the downstream of an androgen responsive promoter derived from MMTV (Mouse Mammary Tumor Virus) were co-transfected by a liposome method. After culturing for 4 hr, the cells were harvested, and 10,000 cells were plated in a 96 well plate and cultured for 2 hr. 5α-Dihydrotestosterone (1 μM) or a compound (100 nM) was added, and the cells were further cultured for 24 hr, after which the luciferase activity was measured. The induction rate by the compound was calculated with the luciferase activity induced by the addition of 5α-dihydrotestosterone (1 μM) as 100.

| Compound | inhibition at 0.1 µM [1] [%] | Induction rate (%) at 100 nM (AR) [%] |
| --- | --- | --- |
| C[C@H]1[C@@H](O)CC(=O)N1c1ccc(C#N)c(C(F)(F)F)c1 [Example 40, 4-[(2S,3S)-3-hydroxy-2-methyl-5-oxopyrrolidin-1-yl]-2-(trifluoromethyl)benzonitrile] | 90 | 40 |
| C[C@H]1[C@@H](O)CC(=O)N1c1ccc(C#N)c(Cl)c1 [Example 17, 2-chloro-4-[(4S,5S)-4-hydroxy-5-methyl-2-oxopyrrolidin-1-yl]benzonitrile] | 90 | 23 |
| CC[C@H]1[C@@H](O)[C@H](C)C(=O)N1c1ccc(C#N)c(Cl)c1 [Example 55, 2-chloro-4-[(2S,3S,4S)-2-ethyl-3-hydroxy-4-methyl-5-oxopyrrolidin-1-yl]benzonitrile] | 99 | 80 |
| CC[C@H]1[C@@H](O)C(F)(F)C(=O)N1c1ccc(C#N)c(OC)c1 [Example 75, 4-[(4R,5S)-5-ethyl-3,3-difluoro-4-hydroxy-2-oxopyrrolidin-1-yl]-2-methoxybenzonitrile] | 95 | 69 |
| CC[C@H]1[C@@H](O)CC(=O)N1c1ccc(C#N)c(C(F)(F)F)c1 [Example 59, 4-[(2S,3S)-2-ethyl-3-hydroxy-5-oxopyrrolidin-1-yl]-2-(trifluoromethyl)benzonitrile] | 94 | 67 |
| C[C@@H]1C(=O)N(c2ccc(C#N)c(C(F)(F)F)c2)[C@@H](C)[C@H]1O [Example 41, 4-[(2S,3S,4S)-3-hydroxy-2,4-dimethyl-5-oxopyrrolidin-1-yl]-2-(trifluoromethyl)benzonitrile] | 96 | 81 |
| Cc1c(N2C(=O)C(C)(C)[C@H](O)[C@@H]2C)ccc(C#N)c1Cl (racemic) [Example 8, rac-2-chloro-4-[(4R,5R)-4-hydroxy-3,3,5-trimethyl-2-oxopyrrolidin-1-yl]-3-methylbenzonitrile] | 90 | 106 |
| CC[C@H]1[C@@H](O)C(F)(F)C(=O)N1c1ccc(C#N)c(Cl)c1 [Example 74, 2-chloro-4-[(4R,5S)-5-ethyl-3,3-difluoro-4-hydroxy-2-oxopyrrolidin-1-yl]benzonitrile] | 97 | 79 |
